Results published in US10463644B2, “Uses of sesquiterpene lactone compounds and their derivatives in drugs preparation” (ACCENDATECH, priority 2013, dated 2019).
Like-named read-outs stand apart in the source and are kept apart here.

Columns and labels:
[1] = system: IL-1β secreted by synoviocyte; test: Content of IL-1β in culture supernatant of synoviocyte of RA model rats given test compound; assay type: in vivo; conditions: rat RA model, dose 30 mg/kg.2d; normal control 0.16 ± 0.034, NaCl 0.49 ± 0.136
Description: (§1) Take Compound 1-50 prepared as per the method according to the present invention and employ the method provided in Reference to prepare model, group drugs and prepare culture supernatant of rat synoviocyte.
(§2) Employ the method provided in Reference to investigate the effects of the test compounds on the synoviocyte to secrete TNF-α and PGE2. Employ the method provided in Reference to investigate the effects of the test compounds on the synoviocyte to secrete IL-1β.
(§3) The experimental data of the test compound 1-50 at a dose of 30 mg/kg.2d as well as the normal control and NaCl group are as follows: […]

[2] = system: cancer cells; test: Survival rate of cancer cells after test compound is added (flow cytometry, Annexin V-FITC/PI, clinical specimen); assay type: cell-based, patient; conditions: Homo sapiens, 18 h, read-out: Survival rate (%) All cells (Stem cells and ordinary cells)
Description: (§4) Take fresh or cryopreserved clinical specimen (acute myelogenous leukemia (AML, marker is CD34^+/CD38^+), chronic myelogenous leukemia (CML, Ph+/CD34+/CXCR4+), chronic lymphocytic leukemia (CLL,CD133+/CD19−/CD38−), skin cancer (CD34+), breast cancer (CD44+/CD24−/ESA+), ovarian cancer (CD44+/CD117+), brain tumor (CD133+) prostate cancer (CD44+/CD24−), head-neck squamous cell carcinoma (CD44+), laryngeal cancer (CD133+), pancreatic cancer (ESA+/CD44+/CD24+), retinoblastoma (ABCG2/ALDH1), Children hepatoblastoma (CD34+/THY1+/c-kit+), liver cancer (CD133+), malignant melanoma (CD133+), colorectal cancer (EpCAM^high/CD44+), colon adenocarcinoma (CD44^high), glioma (ABCG-2/BCRP1), gastrointestinal tumor (ABCG-2/BCRP1), nasopharynx cancer (ABCG2), brain glioma (Dlk-1/Pref-1), gastric cancer (CD45+), lung adenocarcinoma (Sca-1/CD45-/Pecam-/CD34+), lung cancer (CD133+CD34+CD44+)) of patient. Take the acute myelogenous leukemia as the example, conduct density gradient centrifugation with Ficoll and take out the middle mononuclear cells, re-suspend it with serum-free IMDM after centrifuged. Adjust the concentration of cells into 1×10^6/mL and lay 24-well plate with 1 mL in each well, and then treat 18 hours with the compound to select with corresponding concentration. Collect the cells and centrifuge them at 1500 rps for 8 minutes, re-suspend the precipitation with […], mark the antibodies related to leukemia stem cell, avoid light to incubate 30 minutes at room temperature and then centrifuge it at 1500 rps, then wash away the unbound antibody CD34^+CD38^+. Re-suspend it with 100 μl 1× Binding Buffer and add respectively 5 μl Annexin V-FITC and PI, then avoid light to incubate 15 minutes before add 200 μl 1× Binding Buffer, then use flow cytometry to examine the marked apoptosis within one hour.

[3] = system: cancer stem cells; test: Survival rate of cancer stem cells after test compound is added (flow cytometry, Annexin V-FITC/PI, clinical specimen); assay type: cell-based, patient; conditions: Homo sapiens, 18 h
Description: as §4

[4] = system: normal cells; test: Survival rate of normal cells after test compound is added (flow cytometry, Annexin V-FITC/PI); assay type: cell-based; conditions: 18 h
Description: as §4

[5] = system: PGE2 secreted by synoviocyte; test: Content of PGE2 in culture supernatant of synoviocyte of RA model rats given test compound; assay type: in vivo; conditions: rat RA model, dose 30 mg/kg.2d; normal control 8.34 ± 1.29, NaCl 32.44 ± 10.32
Description: as §1, §2, §3

[6] = Head and neck squamous cell carcinomas
[7] = read-out: Survival rate (%) All cells (Stem cells and ordinary cells)
[8] = read-out: Survival rate (%) Stem cells

`C=C1CC[C@H]2C(=C)CC[C@H]3C(=C)C(=O)O[C@@H]3[C@@H]12` [Compound 25] was tested, and the “Content of IL-1β in culture supernatant of synoviocyte (x ± s)” value [1] was 0.39 ± 0.067 ng/mL, the viability at 10 µM ([2]; AML) was 47% and the viability at 20 µM ([2]; AML) was 44%. It also gave a viability at 10 µM ([2]; Brain glioma) of 74%, a viability at 20 µM ([2]; Brain glioma) of 58% and a viability at 10 µM ([2]; Brain tumor) of 83%. For the same compound, the viability at 20 µM ([2]; Brain tumor) was 73%, the viability at 10 µM ([2]; Breast cancer) was 74% and the viability at 20 µM ([2]; Breast cancer) was 65%. For the same compound, the viability at 10 µM ([2]; CLL) was 57%, the viability at 20 µM ([2]; CLL) was 45% and the viability at 10 µM ([2]; CML) was 64%. For the same compound, the viability at 20 µM ([2]; CML) was 49%, the viability at 10 µM ([2]; Children hepatoblastoma) was 53% and the viability at 20 µM ([2]; Children hepatoblastoma) was 47%. It also gave a viability at 10 µM ([2]; Colon adenocarcinoma) of 55%, a viability at 20 µM ([2]; Colon adenocarcinoma) of 49% and a viability at 10 µM ([2]; Colorectal cancer) of 76%. It also gave a viability at 20 µM ([2]; Colorectal cancer) of 66%, a viability at 10 µM ([2]; Gastric cancer) of 54% and a viability at 20 µM ([2]; Gastric cancer) of 47%. It also gave a viability at 10 µM ([2]; Gastrointestinal tumor) of 63%, a viability at 20 µM ([2]; Gastrointestinal tumor) of 52% and a viability at 10 µM ([2]; Glioma) of 83%. It also gave a viability at 20 µM ([2]; Glioma) of 74%, a viability at 10 µM [2, 6] of 67% and a viability at 20 µM [2, 6] of 58%. The viability at 10 µM ([2]; Laryngeal cancer) was 74%, the viability at 20 µM ([2]; Laryngeal cancer) was 64% and the viability at 10 µM ([2]; Liver cancer) was 65%. It also gave a viability at 20 µM ([2]; Liver cancer) of 54%, a viability at 10 µM ([2]; Lung adenocarcinoma) of 57% and a viability at 20 µM ([2]; Lung adenocarcinoma) of 46%. For the same compound, the viability at 10 µM ([2]; Lung cancer) was 54%, the viability at 20 µM ([2]; Lung cancer) was 37% and the viability at 10 µM ([2]; Malignant melanoma) was 81%. The viability at 20 µM ([2]; Malignant melanoma) was 66%, the viability at 10 µM ([2]; Nasopharynx cancer) was 54% and the viability at 20 µM ([2]; Nasopharynx cancer) was 48%. For the same compound, the viability at 10 µM ([2]; Ovarian cancer) was 76%, the viability at 20 µM ([2]; Ovarian cancer) was 67% and the viability at 10 µM ([2]; Pancreatic cancer) was 64%. The viability at 20 µM ([2]; Pancreatic cancer) was 48%, the viability at 10 µM ([2]; Prostate cancer) was 56% and the viability at 20 µM ([2]; Prostate cancer) was 44%. It also gave a viability at 10 µM ([2]; Retinoblastoma) of 64%, a viability at 20 µM ([2]; Retinoblastoma) of 54% and a viability at 10 µM ([2]; Skin cancer) of 66%. For the same compound, the viability at 20 µM ([2]; Skin cancer) was 58%, the viability at 10 µM ([3]; AML) was 35% and the viability at 20 µM ([3]; AML) was 26%. For the same compound, the viability at 10 µM ([3]; Brain glioma) was 62%, the viability at 20 µM ([3]; Brain glioma) was 47% and the viability at 10 µM ([3]; Brain tumor) was 72%. The viability at 20 µM ([3]; Brain tumor) was 66%, the viability at 10 µM ([3]; Breast cancer) was 66% and the viability at 20 µM ([3]; Breast cancer) was 52%. For the same compound, the viability at 10 µM ([3]; CLL) was 46%, the viability at 20 µM ([3]; CLL) was 34% and the viability at 10 µM ([3]; CML) was 57%. The viability at 20 µM ([3]; CML) was 36%, the viability at 10 µM ([3]; Children hepatoblastoma) was 44% and the viability at 20 µM ([3]; Children hepatoblastoma) was 39%. The viability at 10 µM ([3]; Colon adenocarcinoma) was 42%, the viability at 20 µM ([3]; Colon adenocarcinoma) was 35% and the viability at 10 µM ([3]; Colorectal cancer) was 62%. The viability at 20 µM ([3]; Colorectal cancer) was 55%, the viability at 10 µM ([3]; Gastric cancer) was 43% and the viability at 20 µM ([3]; Gastric cancer) was 37%. For the same compound, the viability at 10 µM ([3]; Gastrointestinal tumor) was 54%, the viability at 20 µM ([3]; Gastrointestinal tumor) was 44% and the viability at 10 µM ([3]; Glioma) was 71%. It also gave a viability at 20 µM ([3]; Glioma) of 65%, a viability at 10 µM [3, 6] of 56% and a viability at 20 µM [3, 6] of 47%. The viability at 10 µM ([3]; Laryngeal cancer) was 64%, the viability at 20 µM ([3]; Laryngeal cancer) was 53% and the viability at 10 µM ([3]; Liver cancer) was 52%. The viability at 20 µM ([3]; Liver cancer) was 46%, the viability at 10 µM ([3]; Lung adenocarcinoma) was 46% and the viability at 20 µM ([3]; Lung adenocarcinoma) was 34%. It also gave a viability at 10 µM ([3]; Lung cancer) of 42%, a viability at 20 µM ([3]; Lung cancer) of 29% and a viability at 10 µM ([3]; Malignant melanoma) of 62%. The viability at 20 µM ([3]; Malignant melanoma) was 54%, the viability at 10 µM ([3]; Nasopharynx cancer) was 45% and the viability at 20 µM ([3]; Nasopharynx cancer) was 37%. For the same compound, the viability at 10 µM ([3]; Ovarian cancer) was 64%, the viability at 20 µM ([3]; Ovarian cancer) was 55% and the viability at 10 µM ([3]; Pancreatic cancer) was 54%. The viability at 20 µM ([3]; Pancreatic cancer) was 36%, the viability at 10 µM ([3]; Prostate cancer) was 44% and the viability at 20 µM ([3]; Prostate cancer) was 31%. The viability at 10 µM ([3]; Retinoblastoma) was 55%, the viability at 20 µM ([3]; Retinoblastoma) was 34% and the viability at 10 µM ([3]; Skin cancer) was 55%. For the same compound, the viability at 20 µM ([3]; Skin cancer) was 43%, the viability at 10 µM [4, 7] was 93% and the viability at 10 µM [4, 8] was 89%. The viability at 20 µM [4, 7] was 91%, the viability at 20 µM [4, 8] was 88% and the “Content of PGE2 in culture supernatant of synoviocyte (x ± s)” value [5] was 26.48 ± 2.57 ng/mL.
